“Also recorded” adds a separate entry of the source. Like-named read-outs stand apart in the source and are kept apart here.
Columns and labels:
[1] = tested on: APPswe/PS-1 double transgenic mice; assay: Memory flexibility test (modified Morris Water Maze); assay type: in vivo; details: 7-month-old APPswe/PS-1 mice, 2.0 mg/kg IP three times per week, four weeks, vs Tg control
[2] = tested on: APPswe/PS-1 double transgenic mice; assay: Classical Morris Water Maze test; assay type: in vivo; details: 12 month-old APPswe/PS-1 mice, 2.0 mg/kg IP three times per week, four weeks, vs Tg control
[3] = tested on: CA3-CA1 transmission in the hippocampus of APPswe/PS-1 mice; assay: LTP by TBS in hippocampal CA1 slices from treated APPswe/PS-1 mice; assay type: in vivo; details: slices from the two sets (7- and 12-month-old) of treated APPswe/PS-1 mice
[4] = tested on: synaptic proteins in hippocampus and cortex of APPswe/PS-1 mice; assay: Immunoblotting of synaptic proteins in treated APPswe/PS-1 mice; assay type: in vivo
[5] = tested on: Aβ aggregates in brain of APPswe/PS-1 mice; assay: Thioflavine-S staining of amyloid plaques in treated APPswe/PS-1 mice; assay type: in vivo
[6] = tested on: AT8-positive neurons in APPswe/PS-1 mice; assay: AT8 immunohistochemistry in treated APPswe/PS-1 mice; assay type: in vivo
[7] = target: T1, Immunoprecipitated GSK-3β from hippocampus of wild-type mice (Mus musculus, UniProt Q9WV60); assay: Luminometric GSK-3β activity assay; assay type: biochemical
T1 construct: the hippocampus of two month-old wild-type mice were lysed in immunoprecipitation buffer; from tissue; host or cells: hippocampus of two-month-old wild-type mice, immunoprecipitated with anti-GSK-3β antibody (Santa Cruz Biotechnology) on protein G beads
Experimental: Immunoprecipitation. The immunoprecipitation was performed as previously described (Garrido et al, 2002). Briefly, the hippocampus of two month-old wild-type mice were lysed in immunoprecipitation buffer (25 mM HEPES pH 7.4, 125 mM NaCl, 25 mM NaF, 1 mM EDTA, 1 mM EGTA, 1% NP-40) including phosphatase inhibitors (1 mM NaVO3 and 200 nM okadaic acid) and the protease inhibitor cocktail described above. 200 μg of total proteins from lysate were precleared by using protein G-Sepharose beads (Santa Cruz Biotechnology) for 1 h at 4° C. and then were incubated with anti-GSK-3β antibody (Santa Cruz Biotechnology) and new protein G beads for 4 h at 4° C. The immunocomplexes were finally pelleted and washed three times with cold immunoprecipitation buffer.
GSK-3β activity assay. IC50 of ANDRO was determined by a luminometric GSK-3β activity assay. […] Briefly, ANDRO was tested at different concentrations and diluted in kinase buffer containing final concentrations of: 40 mM Tris pH 7.5; 20 mM MgCl2; 0,1 mg/ml BSA. Diluted ANDRO was added to 25 μM pGS-2 peptide substrate (Millipore, Billerica, USA), immunoprecipited GSK-3β and 10 μM ATP (Cell Signaling, Boston, USA) to a total assay volume of 50 μl. The enzymatic reaction was stopped after 10 min of incubation to room temperature by adding 50 μl Kinase Glo (Promega, Madison, USA). The luminometric signal was allowed to stabilize for 10 min and the measured with a Luminometer TURNER DESIGNS model TD-2020.
Immunoprecipitated GSK-3β from hippocampus of wild-type mice was incubated with ATP and pGS-2 peptide substrate for 5 min, then the reaction was stopped and the kinase activity was determined in a luminometer.

[8] = tested on: dentate gyrus of the hippocampus of wild-type mice; assay: Adult hippocampal neurogenesis (Ki67, DCX immunofluorescence); assay type: in vivo; details: for percentage of the granular cell layer covered by DCX staining / total number of Ki67+ cells in the SGZ: vs vehicle, 2 mg/kg
Experimental: Animals. Two-month-old C57BC6 wild-type mice were treated and handled according to National Institutes of Health guidelines (NIH, […], Md.). The treatments were performed by intraperitoneal (ip) injection of 2.0 mg/kg ANDRO and wild-type control animals were injected only with saline solution as vehicle.
Perfusion and postfixation. Mice were anesthetized (100 μg ketamine+10 μg xylazine in 10 μl saline/g), and then transcardially perfused with saline, followed by 4% paraformaldehyde (PFA) in 0.1M PBS. The brains were removed and incubated inPBS-4% PFA for 24 h at room temperature, dehydrated in 30% sucrose andkept at 4° C. until analysis.
Tissue sectioning. After dehydration,each mouse brain was sectioned on a cryostate in 12 sets of serial coronal sections of 40 μm thickness (Leica Microsystems,Wetzlar, Germany) and collected in ice-cold-PBS in multiwell dishes.Each set contained 5-7 sections covering the entire length of the hippocampus.
Inmunofluorescence for Ki67 and Doublecortin (DCX). Sections were washed with PBS 3 times for 5 min and then incubated in blocking solution (3% donkey serum, 3% BSA, 0.5% Triton X-100 in PBS) for 4 h. Then, tissues were incubated overenight with primary antibodies at 4° C. Primary antibodiesused were:rabbit anti-Ki67 (Abcam), rabbit anti-DCX (Cell Signaling Technology Inc., Beverly, Mass., USA), monoclonal anti-NeuN (Millipore, Billerica, Mass., USA). After washing 3 times with 0.5% Triton X-100 PBS, sections were incubated with Dy Light (Abcam) conjugated secondary antibodies for 2 h at room temperature. Slices were mounted on gelatin-coated slides with Fluoromont-G(Electron Microscopy Sciences, Hatfield, Pa., USA). For quantification, Ki67 positive cells were countedusing a fluorescence microscope (Olympus BX51, Tokyo, Japan). Cells were counted in all sections of one set (see tissue sectioning). Total cells counted in one set were multiplied by the total number of sets to obtain an estimation of the total number of Ki67+ cells in the complete hippocampus. For quantification of the % area covered by DCX, double labeling DCX/NeuN was carried. The total area of the granular cell layer was estimated as the area positive for NeuN staining and the percentage of this area covered by DCX staining was estimated. This image analysis was carried out using the ImageJ software (NIH, USA). Images shown were analyzed by confocal laser microscopy (Olympus FV 1000) and z-projections were generated with ImageJ software.

[9] = Side effects in treated animals; details: in vivo
[10] = young APPswe/PS-1 mice, vs controls
[11] = 2-month-old mice, 2 mg/kg i.p. 3 times per week for 4 weeks

T1 sequence (Q9WV60 whole entry): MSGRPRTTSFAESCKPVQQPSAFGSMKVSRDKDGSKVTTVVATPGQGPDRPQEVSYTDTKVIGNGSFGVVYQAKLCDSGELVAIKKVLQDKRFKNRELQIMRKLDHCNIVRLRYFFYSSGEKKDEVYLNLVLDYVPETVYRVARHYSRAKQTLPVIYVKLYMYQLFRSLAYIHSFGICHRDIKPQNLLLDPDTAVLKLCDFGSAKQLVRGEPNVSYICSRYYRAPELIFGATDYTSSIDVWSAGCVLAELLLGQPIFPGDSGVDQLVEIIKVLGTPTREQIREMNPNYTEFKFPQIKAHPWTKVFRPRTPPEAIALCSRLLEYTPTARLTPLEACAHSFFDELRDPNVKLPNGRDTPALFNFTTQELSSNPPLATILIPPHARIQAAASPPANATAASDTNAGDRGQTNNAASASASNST

For `C=C1CC[C@@H]2C(C)(CO)[C@H](O)CC[C@@]2(C)C1C/C=C1/C(=O)OC[C@H]1O` (stereo in doubt) [ANDRO, 3-(2-(Decahydro-6-hydroxy-5-(hydroxymethyl)-5,8a-dimethyl-2-methylenenaphthyl)ethylidene)dihydro-4-hydroxyfuran-2(3H)-one], the “number of trial to criterion of learning” value [1] was “reduction in the number of trial to criterion of learning”, the escape latency [2] was “significantly lower escape latency values” and the LTP induction [3] was “recovery in the capacity to induce a LTP; also recorded: have the property to induce a LTP that is maintained for 1 h”. The “PSD-95 and GluA2 levels” value ([4]; mature (12-month-old) Tg mice) was “increase of PSD-95 and GluA2 levels”, the “total levels of pre-synaptic proteins SYP and VAMP” value ([4]; young APPswe/PS-1 mice) was “unaltered” and the “levels of post-synaptic proteins (Shank, GluN2B, GluA2, PSD-95)” value ([4]; young APPswe/PS-1 mice, hippocampus and cortex) was “significantly recovers the post-synaptic proteins”. For the same compound, the “plaque size distribution (cumulative frequency)” value ([5]; 7 month-old APPswe/PS-1 mice) was “shift in their distribution toward smaller plaque size”, the “amyloid plaques stained with Th-S” value ([5]; 7 month-old APPswe/PS-1 mice, cortex and hippocampus, vs untreated) was “reduction of amyloid plaques” and the “amyloid deposit levels (amyloid burden area)” value ([5]; hippocampus or cortex, FIG. 3F (12 month-old mice per legend)) was “no change in amyloid deposit levels”. The “immature plaques (type 1)” value [5, 10] was “increase significantly”, the “type 2a and 2c plaques in the total brain” value [5, 10] was “no significant differences” and the “type 2b plaques” value [5, 10] was “significantly decreased”. For the same compound, the “number of AT8-positive neurons next to amyloid deposits” value ([6]; 6 month-old APPswe/PS-1 mice, circular area surrounding plaques) was “clear decrease in the number of AT8-positive neurons”, the “total AT8-positive cells outside the circular area around the plaques” value ([6]; hippocampus) was “decrease in the number of these cells” and the IC50 ([7]; different concentrations of ATP, read-out: IC50 using different concentrations of ATP) was about 5.58 µM. The “IC50 with increased substrate concentration” value ([7]; different concentrations of the substrate) was “increase in the IC50”, the IC50 ([7]; preincubation 10 min, 10 μM ATP, 25 μM pGS-2 peptide substrate, read-out: IC50 of GSK-3β activity) was 5.58 µM and the “density of immature neurons positive for DCX” value [8, 11] was “increase in the density of immature neurons”. The “percentage of the granular cell layer covered by DCX staining” value [8, 11] was “significantly increased”, the “total number of Ki67+ cells in the SGZ” value [8, 11] was “significantly increased the total number of Ki67^+ cells” and the “total number of Ki67+ cells in the SGZ” value ([8]; 2-month-old mice, 2 mg/kg i.p. 3 times per week for 4 weeks, listed as Ando) was “significant increase in the total number of Ki67^+ cell”. The “percentage of the granular cell layer covered by DCX staining” value ([8]; 2-month-old mice, 2 mg/kg i.p. 3 times per week for 4 weeks, listed as Andro) was “significant increase in the percentage of the granular cell layer area covered by DCX staining”, the “morphology of DCX+ cells” value ([8]; compared to control mice) was “more complex morphology” and the “side effects in animals” value [9] was “seems not to cause side effects in animals”.

Reference: US20220409573A1, “Hippocampus Regeneration And Memory Recovery” (INNOBIOSCIENCE, LLC, priority 2021, published 2022)
